Data set [1] is described as follows: Cytotoxicity against HDF cells assessed as cell viability at 100 uM by MTT assay. In kind it is cell-based. As to conditions: human, read-out: Activity.
Data set [2] deals with T1, Prostaglandin G/H synthase 1 (Ovis aries, UniProt P05979).
T1 sequence (P05979 whole entry): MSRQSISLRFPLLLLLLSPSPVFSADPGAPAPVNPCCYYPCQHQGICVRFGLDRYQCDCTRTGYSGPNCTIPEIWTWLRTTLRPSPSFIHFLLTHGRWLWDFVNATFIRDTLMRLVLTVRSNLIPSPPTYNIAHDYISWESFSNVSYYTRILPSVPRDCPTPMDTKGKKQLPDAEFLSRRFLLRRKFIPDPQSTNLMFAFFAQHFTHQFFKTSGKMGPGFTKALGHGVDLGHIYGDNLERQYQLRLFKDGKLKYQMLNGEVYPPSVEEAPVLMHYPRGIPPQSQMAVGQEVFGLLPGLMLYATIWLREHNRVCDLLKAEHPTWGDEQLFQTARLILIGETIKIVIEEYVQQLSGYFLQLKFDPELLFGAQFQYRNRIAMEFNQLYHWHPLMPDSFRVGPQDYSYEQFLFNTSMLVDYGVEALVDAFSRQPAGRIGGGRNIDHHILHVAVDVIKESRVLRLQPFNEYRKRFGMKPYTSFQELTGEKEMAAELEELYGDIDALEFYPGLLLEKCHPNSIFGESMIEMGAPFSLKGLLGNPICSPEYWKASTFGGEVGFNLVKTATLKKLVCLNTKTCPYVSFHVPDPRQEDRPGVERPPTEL
As to the kind of experiment: Inhibition of ovine COX1.

Molecules are shown by their SMILES.

As usually defined, the IC50 is the concentration that gives 50% inhibition. High values mean lower potency, low ones higher potency. In the case of `O=C1CS/C(=N/N=C\c2cn(-c3ccccc3)nc2-c2ccc(Br)cc2)N1c1ccccc1`, the viability at 100 µM in data set [1] came to 57.4%. 60.5 µM corresponded to half-maximal inhibition in data set [2] (IC50).

`COc1ccc(-c2nn(-c3ccccc3)cc2/C=N\NC(=S)Nc2ccccc2)cc1`: the viability at 100 µM in data set [1] turned out to be 52.6%. For the same molecule, in data set [2], inhibition was half-maximal at 42.3 µM (IC50).

Turning to `CC(=O)NC1=NN(C(C)=O)C(c2cn(-c3ccccc3)nc2-c2ccc(Br)cc2)S1` (stereo unspecified), the viability at 100 µM in data set [1] stood at 51.6%. In data set [2], the IC50 stood at 64.7 µM.

Take `COc1ccc(-c2nn(-c3ccccc3)cc2/C=N\N=C2\SCC(=O)N2c2ccccc2)cc1`: in data set [1], the viability at 100 µM stood at 63.4%. This molecule also yielded an IC50 in data set [2] of 62.3 µM.

As for `COc1ccc(-c2nn(-c3ccccc3)cc2C2SC(N(C(C)=O)c3ccccc3)=NN2C(C)=O)cc1` (stereo unspecified), in data set [1], the viability at 100 µM came to 61.4%. This molecule gave an IC50 in data set [2] of 64.7 µM.

As to `S=C(N/N=C\c1cn(-c2ccccc2)nc1-c1ccc(Cl)cc1)Nc1ccccc1`, the viability at 100 µM in data set [1] is 61.7%. In data set [2], it took 64.5 µM to reach half-maximal inhibition (IC50).

Consider `COc1ccc(-c2nn(-c3ccccc3)cc2/C=N\NC2=NC(=O)CS2)cc1`, for which the viability at 100 µM in data set [1] came out at 59.7%. This molecule came in with an IC50 in data set [2] of 71.3 µM.

Regarding `COc1ccc(-c2nn(-c3ccccc3)cc2C2SC(NC(C)=O)=NN2C(C)=O)cc1` (stereo unspecified), the viability at 100 µM in data set [1] is 56.7%. The IC50 in data set [2] was determined as 80.3 µM.

Take `NC(=S)N/N=C\c1cn(-c2ccccc2)nc1-c1ccc(Br)cc1`: the viability at 100 µM in data set [1] was 57.6%. Half-maximal inhibition in data set [2] (IC50) was put at 60.3 µM.

Regarding `O=C1CSC(N/N=C\c2cn(-c3ccccc3)nc2-c2ccc(Cl)cc2)=N1`, the viability at 100 µM in data set [1] came to 58.7%. This molecule also displayed an IC50 in data set [2] of 60.7 µM.

As to `CC(=O)NC1=NN(C(C)=O)C(c2cn(-c3ccccc3)nc2-c2ccc(Cl)cc2)S1` (stereo unspecified), the viability at 100 µM in data set [1] came to 57.7%. Further, in data set [2], the IC50 came out at 70.3 µM.

With `CC(=O)N(C1=NN(C(C)=O)C(c2cn(-c3ccccc3)nc2-c2ccc(Cl)cc2)S1)c1ccccc1` (stereo unspecified), the viability at 100 µM in data set [1] is 61.7%. The IC50 in data set [2] is 70.3 µM.

Turning to `COc1ccc(-c2nn(-c3ccccc3)cc2/C=N\NC(N)=S)cc1`, the viability at 100 µM in data set [1] was 63.4%. Further, inhibition in data set [2] was half-maximal at 62.3 µM (IC50).

In the case of `CC(=O)N(C1=NN(C(C)=O)C(c2cn(-c3ccccc3)nc2-c2ccc(Br)cc2)S1)c1ccccc1` (stereo unspecified), the viability at 100 µM in data set [1] stood at 51.4%. In data set [2], the IC50 was 72.7 µM.

For the molecule `NC(=S)N/N=C\c1cn(-c2ccccc2)nc1-c1ccc(Cl)cc1`, the viability at 100 µM in data set [1] stood at 71.7%. In addition, in data set [2], the IC50 amounted to 56.3 µM.

For the molecule `S=C(N/N=C\c1cn(-c2ccccc2)nc1-c1ccc(Br)cc1)Nc1ccccc1`, in data set [1], the viability at 100 µM was 58.7%. This molecule registered an IC50 in data set [2] of 65.7 µM.

As for `O=C1CSC(N/N=C\c2cn(-c3ccccc3)nc2-c2ccc(Br)cc2)=N1`, the viability at 100 µM in data set [1] was determined as 55.6%. For the same molecule, in data set [2], it took 66.3 µM to reach half-maximal inhibition (IC50).

`O=C1CS/C(=N/N=C\c2cn(-c3ccccc3)nc2-c2ccc(Cl)cc2)N1c1ccccc1`: the viability at 100 µM in data set [1] is 60.7%. The IC50 in data set [2] was 62.3 µM.
